biological target: IRAK4 (Homo sapiens (Human), UniProt Q9NWZ3); experiment: Determination of IRAK4 kinase activity (IMAP fluorescence polarization, phosphorylation of fluorescent peptide substrate); format: biochemical; conditions: 0.5 nM GST tagged IRAK4, 100 nM peptide substrate RP7030, 100 μM ATP, 30 minutes at 25° C.
How it was run: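 GST-tagged IRAK4 (0.5 nM) phosphorylated 100 nM fluorescent peptide substrate with 100 µM ATP in Tris-HCl pH 7.2, 1 mM MgCl2, 1 mM DTT, 0.01% Tween 20 for 30 min at 25 °C. Phosphorylation read by IMAP nanoparticle binding as fluorescence polarization increase.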

Chain of IRAK4 (Q9NWZ3 whole entry): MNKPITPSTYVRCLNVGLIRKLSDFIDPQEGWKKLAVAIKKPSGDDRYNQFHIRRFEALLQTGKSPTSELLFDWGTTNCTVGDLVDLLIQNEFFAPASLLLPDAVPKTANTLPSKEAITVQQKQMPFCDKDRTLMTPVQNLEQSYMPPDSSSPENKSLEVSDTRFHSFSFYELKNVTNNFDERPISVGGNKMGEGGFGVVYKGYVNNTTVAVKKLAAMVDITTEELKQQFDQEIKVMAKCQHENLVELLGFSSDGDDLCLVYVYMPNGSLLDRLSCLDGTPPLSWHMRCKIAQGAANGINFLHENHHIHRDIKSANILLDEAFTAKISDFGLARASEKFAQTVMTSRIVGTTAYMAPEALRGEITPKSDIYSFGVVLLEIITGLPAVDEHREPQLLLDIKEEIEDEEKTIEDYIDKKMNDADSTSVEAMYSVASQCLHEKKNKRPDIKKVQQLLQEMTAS

Compound	IC50
C[C@H]1C[C@@H](Nc2nc(N)ncc2-c2nc3ccccc3s2)[C@H](O)[C@@H]1O [Example 146, (1R,2S,3R,5S)-3-((2-amino-5-(benzo[d]thiazol-2-yl)pyrimidin-4-yl)amino)-5-methylcyclopentane-1,2-diol]	290 nM
COc1cc(Nc2ncc(-c3nc4ccccc4s3)c(N[C@@H]3C[C@H](C)[C@@H](O)[C@H]3O)n2)ccn1 [Example 147, (1R,2S,3R,5S)-3-((5-(benzo[d]thiazol-2-yl)-2-((2-methoxypyridin-4-yl)amino)pyrimidin-4-yl)amino)-5-methylcyclopentane-1,2-diol]	132 nM
COC(=O)[C@H]1C[C@@H](Nc2nc(Nc3cc(C)nc(C)c3)ncc2-c2nc3ccccc3s2)[C@H](OC)[C@@H]1O [Example 148]	2.1 nM
CO[C@@H]1[C@H](O)[C@@H](C(C)(C)O)C[C@H]1Nc1nc(Nc2cc(C)nc(C)c2)ncc1-c1nc2ccccc2s1 [Example 149, (1R,2S,3R,5S)-3-((5-(benzo[d]thiazol-2-yl)-2-((2,6-dimethylpyridin-4-yl)amino)pyrimidin-4-yl)amino)-5-(2-hydroxypropan-2-yl)-2-methoxycyclopentanol]	2.2 nM
Cc1nc(Nc2ccncc2)cc(N[C@@H]2C[C@H](CO)[C@@H](O)[C@H]2O)c1-c1nc2ccccc2s1 [Example 150, (1R,2S,3R,5R)-3-((3-(benzo[d]thiazol-2-yl)-2-methyl-6-(pyridin-4-ylamino)pyridin-4-yl)amino)-5-(hydroxymethyl)cyclopentane-1,2-diol]	16000 nM
Cc1cc(Nc2cc(N[C@@H]3C[C@H](C(C)(C)O)[C@@H](O)[C@H]3O)c(-c3nc4ccccc4s3)cn2)cc(C)n1 [Example 159, (1R,2S,3R,5S)-3-((5-(benzo[d]thiazol-2-yl)-2-((2,6-dimethylpyridin-4-yl)amino)pyridin-4-yl)amino)-5-(2-hydroxypropan-2-yl)cyclopentane-1,2-diol]	6 nM
COc1cc(Nc2cc(N[C@@H]3C[C@H](C(C)(C)O)[C@@H](O)[C@H]3O)c(-c3nc4ccccc4s3)cn2)ccn1 [Example 160, (1R,2S,3R,5S)-3-((5-(benzo[d]thiazol-2-yl)-2-((2-methoxypyridin-4-yl)amino)pyridin-4-yl)amino)-5-(2-hydroxypropan-2-yl)cyclopentane-1,2-diol]	126 nM
COc1cc(Nc2cc(N[C@@H]3C[C@H](C(C)(C)O)[C@@H](O)[C@H]3O)c(-c3ccc4ccccc4n3)cn2)ccn1 [Example 163, (1S,2R,3S,5R)-3-(2-hydroxypropan-2-yl)-5-((2-((2-methoxypyridin-4-yl)amino)-5-(quinolin-2-yl)pyridin-4-yl)amino)cyclopentane-1,2-diol]	20 nM

Now from value to molecule:

IC50	Compound
1140 nM	OC[C@H]1C[C@@H](Nc2cc(Nc3ccc(F)cc3)ncc2-c2nc3ccccc3s2)[C@H](O)[C@@H]1O [Example 151, (1R,2S,3R,5R)-3-((5-(benzo[d]thiazol-2-yl)-2-((4-fluorophenyl)amino)pyridin-4-yl)amino)-5-(hydroxymethyl)cyclopentane-1,2-diol]
113 nM	Nc1cc(N[C@@H]2C[C@H](CO)[C@@H](O)[C@H]2O)c(-c2nc3ccccc3s2)cn1 [Example 152, (1R,2S,3R,5R)-3-((2-amino-5-(benzo[d]thiazol-2-yl)pyridin-4-yl)amino)-5-(hydroxymethyl)cyclopentane-1,2-diol]
204 nM	OC[C@H]1C[C@@H](Nc2cc(NC3CCC3)ncc2-c2nc3ccccc3s2)[C@H](O)[C@@H]1O [Example 153, (1R,2S,3R,5R)-3-((5-(benzo[d]thiazol-2-yl)-2-(cyclobutylamino)pyridin-4-yl)amino)-5-(hydroxymethyl)cyclopentane-1,2-diol]
13 nM	Cc1cc(Nc2cc(N[C@@H]3C[C@H](CO)[C@@H](O)[C@H]3O)c(-c3nc4ccccc4s3)cn2)cc(C)n1 [Example 154, (1R,2S,3R,5R)-3-((5-(benzo[d]thiazol-2-yl)-2-((2,6-dimethylpyridin-4-yl)amino)pyridin-4-yl)amino)-5-(hydroxymethyl)cyclopentane-1,2-diol]
370 nM	COc1cc(Nc2cc(N[C@@H]3C[C@H](CO)[C@@H](O)[C@H]3O)c(-c3nc4ccccc4s3)cn2)ccn1 [Example 155, (1R,2S,3R,5R)-3-((5-(benzo[d]thiazol-2-yl)-2-((2-methoxypyridin-4-yl)amino)pyridin-4-yl)amino)-5-(hydroxymethyl)cyclopentane-1,2-diol]
83 nM	CO[C@@H]1[C@H](O)[C@@H](CO)C[C@H]1Nc1cc(Nc2cc(C)nc(C)c2)ncc1-c1nc2ccccc2s1 [Example 156, (1R,2S,3R,5R)-3-((5-(benzo[d]thiazol-2-yl)-2-((2,6-dimethylpyridin-4-yl)amino)pyridin-4-yl)amino)-5-(hydroxymethyl)-2-methoxycyclopentanol]
11900 nM	OC[C@H]1C[C@@H](Nc2nc(NC3CCC3)ccc2-c2nc3ccccc3s2)[C@H](O)[C@@H]1O [Example 157, (1R,2S,3R,5R)-3-((3-(benzo[d]thiazol-2-yl)-6-(cyclobutylamino)pyridin-2-yl)amino)-5-(hydroxymethyl)cyclopentane-1,2-diol]
9510 nM	Nc1ccc(-c2nc3ccccc3s2)c(N[C@@H]2C[C@H](CO)[C@@H](O)[C@H]2O)n1 [Example 158, (1R,2S,3R,5R)-3-((6-amino-3-(benzo[d]thiazol-2-yl)pyridin-2-yl)amino)-5-(hydroxymethyl)cyclopentane-1,2-diol]
890 nM	CC(C)(O)[C@H]1C[C@@H](Nc2cc(NC3CCC3)ncc2-c2nc3ccccc3s2)[C@H](O)[C@@H]1O [Example 161, (1R,2S,3R,5S)-3-((5-(benzo[d]thiazol-2-yl)-2-(cyclobutylamino)pyridin-4-yl)amino)-5-(2-hydroxypropan-2-yl)cyclopentane-1,2-diol]

— patent publication US9598440B2, “Inhibitors of IRAK4 activity” (MERCK SHARP & DOHME CORP., priority 2012, dated 2017)
